According to patent US20250296909A1, “NOVEL BENZENE DERIVATIVE AND IMMUNOSUPPRESSION-RELATED USE THEREOF” (PROVIBIO CO., LTD., priority 2021, published 2025):

Tests used:
[1] = tested on: spleen T cells; experiment: T cell proliferation inhibition (CFSE, FACS), CD3/CD28-activated spleen T cells; format: cell-based, C57BL/6 mice; settings: Mus musculus, T-cell, 72 h, Table 2, 3 days, relative to CD3/CD28+DMSO, read-out: Proliferation inhibition rate (%)
How it was run: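 Proliferation inhibition is expressed as a percentage versus CD3/CD28-stimulated DMSO controls, from CFSE dye dilution measured by FACS after 3 days at 37 °C. Compounds at 10, 30 and 50 μM (triplicate) on anti-CD3/CD28-activated (0.5 μg/mL each) C57BL/6 mouse spleen T cells, 2×10^5 per well.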

[2] = tested on: T lymphocyte cell line Jurkat E6-1; experiment: Cytotoxicity experiment (CCK-8, relative cell survival); format: cell-based; settings: 24 hours, untreated cells = 100%
How it was run: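 Relative survival versus untreated cells (set to 100%) from CCK-8 absorbance at 450 nm after 2 h dye incubation. Cells had been treated with graded compound concentrations for 24 h at 37 °C in 5% CO2, cultured in RPMI-1640 plus 10% FBS.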

[3] = tested on: psoriasis mouse animal model; experiment: Psoriasis mouse animal model (imiquimod-induced); format: in vivo, BALB/c mice; settings: 40 mg/kg intraperitoneally twice a day
Source text: To confirm the therapeutic effect of compounds according to the present invention on psoriasis, a psoriasis animal model was established to evaluate the alleviation of skin lesions and changes in immune cell profiles by administering Compound 69 or Compound 83 via injection.
To establish a psoriasis mouse animal model, BALB/c mice (7 weeks old, 20 g, female) were purchased from Hana Biotech Co. and allowed to acclimate to the housing environment for one week. Afterward, the fur on the dorsal area of the mice was initially shaved using a shaver, followed by complete removal with depilatory cream (Nicrin Cream, comprising thioglycolic acid 80%, manufactured by ILDONG Pharmaceutical CO., LTD). The mice were then housed for 24 hours to confirm any wounds on their backs.
Subsequently, in order to verify the preventive and therapeutic effects of compounds according to the present invention on psoriasis, five experimental groups were established as shown in FIG. 7 and Table 5. From the second to the fifth group, Aldara® cream was applied once daily for two weeks (14 days, total of 14 applications) at a dose of 80 mg (imiquimod, 4 mg) per mouse to induce psoriasis. Furthermore, to compare the preventive and therapeutic effects of compounds according to the present invention (Compound 69 and Compound 83) on psoriasis, 40 mg/kg of the compound per mouse was dissolved in DMSO corresponding to 10% of the dosing volume, and then diluted in a mixture of Cremophor EL-PEG 400-distilled water to achieve a final ratio of DMSO: Cremophor EL:PEG 400:distilled water to 1:1:4:4 (v/v/v/v). Subsequently, the respective injections were intraperitoneally administered at a dose of 100 μL per mouse, twice a day with a 12-hour interval. For the Vehicle control group, injections excluding the drug but comprising the vehicle solution (DMSO: Cremophor EL:PEG 400:distilled water=1:1:4:4 (v/v/v/v)) were administered at a dose of 100 μL per mouse, twice a day with a 12-hour interval.
To assess the impact of each compound on immune cells in vivo, the spleens of mice treated with each compound were harvested, and cells were extracted, and cells were suspended in MACS buffer (2 mM EDTA, 0.5% FBS, 137 mM NaCl, 2.7 mM KCl, 10 mM Na2HPO4, 1.8 mM KH2PO4, Miltenyi Biotech.). For flow cytometry analysis, each mouse's splenocytes were aliquoted at 5×10^5 cells per FACS tube (5 mL round tube, Falcon). To prevent non-specific antibody binding, each tube was treated with 1 μg/mL of anti-mouse CD16/CD32 (InVivoMAb) for 30 minutes, followed by centrifugation at 13,000 rpm for 5 minutes, and resuspended in 100 μL of MACS buffer. Subsequent experiments were conducted depending on the type of immune cells to be examined.
For B cells, each FACS tube was stained with 1 μg/mL of FITC-conjugated anti-B220 antibody (eBioscience™) at 4° C. for 30 minutes, followed by washing with 2 mL of MACS buffer. Subsequently, each tube was centrifuged at 15,000 rpm for 5 minutes, the supernatant was removed, and the precipitated cells were fixed using 200 μL of 4% paraformaldehyde solution.
For T cells, each FACS tube was stained with 1 μg/mL of PerCP-Cy5.5-conjugated anti-CD3 antibody (Biolegend), FITC-conjugated anti-CD8 antibody (eBioscience™) and Cy7-conjugated anti-CD4 antibody (eBioscience™) at 4° C. for 30 minutes, followed by washing with 2 mL of MACS buffer. Subsequently, each tube was centrifuged at 15,000 rpm for 5 minutes, the supernatant was removed, and the precipitated cells were fixed using 200 μL of 4% paraformaldehyde solution.
For macrophages, each FACS tube was stained with 1 μg/mL of FITC-conjugated anti-CD11b antibody (eBioscience™) at 4° C. for 30 minutes, followed by washing with 2 mL of MACS buffer. Subsequently, each tube was centrifuged at 15,000 rpm for 5 minutes, the supernatant was removed, and the precipitated cells were fixed using 200 μL of 4% paraformaldehyde solution.

[4] = flow cytometry, versus psoriasis groups, FIG. 10

O=C(NCCCCCCCCCCCCO)c1ccccc1Br [Compound 83]
inhibition at 10 µM ([1]; 10 μM): 0%
inhibition at 30 µM ([1]; 30 μM): 63%
inhibition at 50 µM ([1]; 50 μM): 100%
Relative cell survival rate (%) ([2]; 10 μM): 102%
Relative cell survival rate (%) ([2]; 20 μM): 105%
Relative cell survival rate (%) ([2]; 30 μM): 87%
Relative cell survival rate (%) ([2]; 50 μM): 77%
skin lesions (erythema, thickness, exfoliation of back skin) ([3]; 14 days, FIG. 8): either minimally present or hardly observed
hyperkeratosis, parakeratosis, irregular acanthosis, infiltration of inflammatory cells (H&E staining) ([3]; 14 days, FIG. 9): either minimally present or hardly observed
proportion of B cells in the spleen [3, 4]: increase
proportion of CD11b granulocytes in the spleen [3, 4]: decreased
proportion of T cells in the spleen [3, 4]: increase
